From patent US20090036444A1, “5-5-Membered fused heterocyclic compound and use thereof as HCV polymerase inhibitor” (priority 2003, published 2009) come the findings set out here.

Structures can show the parent of a compound that is named as a salt. Where two headings read alike, the source gives them in different places.

For test [1], the target named is T1, HCV polymerase H544 1a 3X (UniProt P27958).
T1 construct: fused on or other part: 6 His tag at the C-terminus, for the BK (1b) enzyme
Nature of the test: Assay of enzyme (HCV polymerase) inhibitory activity, H544 1a 3X. The test is classed as biochemical.

In test [2] the target is T2, HCV polymerase H544 1b 3X (Hepatitis C virus genotype 1b, UniProt P26663).
T2 construct: a region encoding NS5B (J Virol 1991 March, 65(3), 1105-13, 544 amino acids after deletion of 47 amino acids on the C-terminal); 6 His (C); made in house; host or cells: Escherichia coli
T2 sequence (P26663 2420-2963): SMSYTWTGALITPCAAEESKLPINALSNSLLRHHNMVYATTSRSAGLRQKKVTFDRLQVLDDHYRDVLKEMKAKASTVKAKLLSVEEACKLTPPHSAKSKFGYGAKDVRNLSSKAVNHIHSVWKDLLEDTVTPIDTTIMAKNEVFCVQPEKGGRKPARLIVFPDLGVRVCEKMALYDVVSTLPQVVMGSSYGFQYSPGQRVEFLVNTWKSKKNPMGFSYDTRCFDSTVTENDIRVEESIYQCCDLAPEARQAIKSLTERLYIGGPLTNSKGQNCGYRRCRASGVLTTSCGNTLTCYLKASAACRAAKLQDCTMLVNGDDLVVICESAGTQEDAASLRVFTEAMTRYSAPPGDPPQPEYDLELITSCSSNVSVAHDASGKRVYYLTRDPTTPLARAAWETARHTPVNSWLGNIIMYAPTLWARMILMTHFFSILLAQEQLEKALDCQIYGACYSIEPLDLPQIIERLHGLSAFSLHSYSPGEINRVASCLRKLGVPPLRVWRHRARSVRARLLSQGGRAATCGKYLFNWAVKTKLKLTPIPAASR
Nature of the test: Assay of enzyme (HCV polymerase) inhibitory activity, H544 1b 3X. The test is classed as biochemical, HCV BK strain. The text has this: The evaluation of the HCV polymerase inhibitory activity of the compound of the present invention is explained in the following. This polymerase is an enzyme coded for by the non-structural protein region called NS5B on the genome RNA of HCV (EMBO J., 15:12-22, 1996).
Using, as a template, a cDNA clone corresponding to the full length genome RNA of HCV BK strain obtained from the blood of a patient with hepatitis C, a region encoding NS5B (J Virol 1991 March, 65(3), 1105-13, 544 amino acids after deletion of 47 amino acids on the C-terminal) was amplified by PCR. The objective gene was prepared by adding a 6 His tag {base pair encoding 6 continuous histidine (His)} to the 3′ end thereof and transformed to Escherichia coli. The Escherichia coli capable of producing the objective protein was cultured. The obtained cells were suspended in a buffer solution and crushed in a microfluidizer. The supernatant was obtained by centrifugation and applied to various column chromatographys {mono-S, Sephacryl S-200 (Pharmacia)}, inclusive of metal chelate chromatography, to give a standard enzyme product.
Using a synthetic primer designed based on the sequence of HCV genomic 3′ untranslated region, a DNA fragment (148 bp) containing polyU and 3′X sequence was entirely synthesized and cloned into plasmid pBluescript SK II (+) (Stratagene). The cDNA encoding full length NS5B, which was prepared in i) above, was digested with restriction enzyme KpnI to give a cDNA fragment containing the nucleotide sequence of from the restriction enzyme cleavage site to the termination codon. This cDNA fragment was inserted into the upstream of 3′ untranslated region of the DNA in pBluescript SK II(+) and ligated. The about 450 bp inserted DNA sequence was used as a template in the preparation of substrate RNA. This plasmid was cleaved immediately after the 3′X sequence, linearized and purified by phenol-chloroform treatment and ethanol precipitation to give DNA.
RNA was synthesized (37° C., 3 hr) by run-off method using this purified DNA as a template, a promoter of pBluescript SK II(+), MEGAscript RNA synthesis kit (Ambion) and T7 RNA polymerase. DNase I was added and the mixture was incubated for 1 hr. The template DNA was removed by decomposition to give a crude RNA product. This crude product was treated with phenol-chloroform and purified by ethanol precipitation to give the objective substrate RNA.
This RNA was applied to formaldehyde denaturation agarose gel electrophoresis to confirm the quality thereof and preserved at −80° C.
A test substance (compound of the present invention) and a reaction mixture (30 μl) having the following composition were reacted at 25° C. for 90 min. 10% Trichloroacetic acid at 4° C. and 1% sodium pyrophosphate solution (150 μl) were added to this reaction mixture to stop the reaction. The reaction mixture was left standing in ice for 15 min to insolubilize RNA. This RNA was trapped on a glass filter (Whatman GF/C and the like) upon filtration by suction. This filter was washed with a solution containing 1% trichloroacetic acid and 0.1% sodium pyrophosphate, washed with 90% ethanol and dried. A liquid scintillation cocktail (Packard) was added and the radioactivity of RNA synthesized by the enzyme reaction was measured on a liquid scintillation counter.
The HCV polymerase inhibitory activity (IC50) of the compound of the present invention was calculated from the values of radioactivity of the enzyme reaction with and without the test substance.
The results are shown in Table 18, wherein each symbol means that IC50 falls within the following range.
Reaction mixture: HCV polymerase (0.5 μg/ml) obtained in i), substrate RNA (5 μg/ml) obtained in ii), ATP (50 μM), GTP (50 μM), CTP (50 μM), UTP (2 μM), [5,6-^3H] UTP (46 Ci/mmol (Amersham), 1 μCi) 20 mM Tris-HCl (pH 7.5), EDTA (1 mM), MgCl2 (5 mM), NaCl (50 mM), DTT (1 mM), BSA (0.01%)

The mark [3] stands for this setting: 25° C., 90 min, [5,6-3H]UTP incorporation, read-out: H544 1a 3X IC50.
Setting [4] is: read-out: H544 1a 3X IC50, 25° C., 90 min, [5,6-3H]UTP incorporation.

As for `O=C(O)c1cc2c(s1)c(C1CCCCC1)c(-c1ccc(OCc3ccccc3)cc1)n2CCN1CCOCC1` [Example 47, 5-(4-benzyloxyphenyl)-6-cyclohexyl-4-(2-morpholinoethyl)-4H-thieno[3,2-b]pyrrole-2-carboxylic acid], the IC50 in test [1] (setting [3]) and in test [2] was 100 to 1000 nM each time.

`O=C(O)c1cc2nc(-c3ccc(OCc4cc(N5CCCC5=O)ccc4-c4ccc(Cl)cc4)cc3)n(C3CCCCC3)c2s1` [Example 3, 2-{4-[4′-chloro-4-(2-oxopyrrolidin-1-yl)biphenyl-2-ylmethoxy]phenyl}-3-cyclohexyl-3H-thieno[2,3-d]imidazole-5-carboxylic acid hydrochloride]: the IC50 in test [1] (setting [4]) is 100 to 1000 nM; in test [2], below 100 nM.

For `Cn1c(-c2ccc(OCc3cc(N4CCCC4=O)ccc3N3CCN(S(C)(=O)=O)CC3)cc2)c(C2CCCCC2)c2sc(C(=O)O)cc21` [Example 18, 6-cyclohexyl-5-{4-[2-(4-methanesulfonylpiperazin-1-yl)-5-(2-oxopyrrolidin-1-yl)benzyloxy]phenyl}-4-methyl-4H-thieno[3,2-b]pyrrole-2-carboxylic acid hydrochloride], the IC50 in test [1] (setting [3]) and in test [2] was below 100 nM each time.

With `CN(CCN1CCOCC1)CCn1c(-c2ccc(OCc3ccccc3)cc2)c(C2CCCCC2)c2sc(C(=O)O)cc21` [Example 58, 5-(4-benzyloxyphenyl)-6-cyclohexyl-4-{2-[N-methyl-N-(2-morpholinoethyl)amino]ethyl}-4H-thieno[3,2-b]pyrrole-2-carboxylic acid dihydrochloride], the IC50 in test [1] (setting [4]) and in test [2] was 100 to 1000 nM each time.

As for `CC(C)(C)NC(=O)Cn1c(-c2ccc(OCc3ccccc3)cc2)c(C2CCCCC2)c2sc(C(=O)O)cc21` [Example 44, 5-(4-benzyloxyphenyl)-4-(tert-butylcarbamoylmethyl)-6-cyclohexyl-4H-thieno[3,2-b]pyrrole-2-carboxylic acid], the IC50 in test [1] (setting [3]) and in test [2] was 100 to 1000 nM in each case.

As to `CN(C)C(=O)Cn1c(-c2ccc(Oc3ccccc3)cc2)c(C2CCCCC2)c2sc(C(=O)O)cc21` [Example 42, 6-cyclohexyl-4-dimethylcarbamoylmethyl-5-(4-phenoxyphenyl)-4H-thieno[3,2-b]pyrrole-2-carboxylic acid], the IC50 in test [1] (setting [3]) and in test [2] was below 100 nM in each case.

As to `COc1ccc(-c2c(C3CCCCC3)c3sc(C(=O)O)cc3n2CC(=O)N2CCC(N(C)C)CC2)cc1` [Example 27, 6-cyclohexyl-4-(4-dimethylaminopiperidino)carbonylmethyl-5-(4-methoxyphenyl)-4H-thieno[3,2-b]pyrrole-2-carboxylic acid], the IC50 in test [1] (setting [3]) and in test [2] was below 100 nM throughout.

Turning to `O=C(O)c1cc2c(s1)c(C1CCCCC1)c(-c1ccc(OCc3ccccc3)cc1)n2CC(=O)N1CCN(C2CCCCC2)CC1` [Example 52, 5-(4-benzyloxyphenyl)-6-cyclohexyl-4-[2-(4-cyclohexylpiperazin-1-yl)-2-oxoethyl]-4H-thieno[3,2-b]pyrrole-2-carboxylic acid hydrochloride], the IC50 in test [1] (setting [3]) and in test [2] was below 100 nM in each case.

`CN(C)CC(=O)N(C)c1ccc(N2CCOCC2)c(COc2ccc(-c3c(C4CCCCC4)c4sc(C(=O)O)cc4n3C)cc2)c1` [Example 43, 6-cyclohexyl-5-(4-{5-[N-(2-dimethylaminoacetyl)-N-methylamino]-2-morpholinobenzyloxy}phenyl)-4-methyl-4H-thieno[3,2-b]pyrrole-2-carboxylic acid dihydrochloride]: the IC50 in test [1] (setting [4]) and in test [2] was below 100 nM throughout.

Consider `CC(C)C(=O)N(C)c1ccc(N2CCOCC2)c(COc2ccc(-c3c(C4CCCCC4)c4sc(C(=O)O)cc4n3C)cc2)c1` [Example 30, 6-cyclohexyl-5-{4-[5-(N-isobutyryl-N-methylamino)-2-morpholinobenzyloxy]phenyl}-4-methyl-4H-thieno[3,2-b]pyrrole-2-carboxylic acid hydrochloride], for which the IC50 in test [1] (setting [3]) and in test [2] was below 100 nM in each case.

With `CN(C)C(=O)Cn1c(-c2ccc(OCc3ccccc3N3CCOCC3)cc2)c(C2CCCCC2)c2sc(C(=O)O)cc21` [Example 38, 6-cyclohexyl-4-dimethylcarbamoylmethyl-5-[4-(2-morpholinobenzyloxy)phenyl]-4H-thieno[3,2-b]pyrrole-2-carboxylic acid], the IC50 in test [1] (setting [3]) and in test [2] was below 100 nM each time.

With `CN(C)CCn1c(-c2ccc(OCc3cc(S(C)(=O)=O)ccc3N3CCOCC3)cc2)c(C2CCCCC2)c2sc(C(=O)O)cc21` [Example 56, 6-cyclohexyl-4-(2-dimethylaminoethyl)-5-[4-(5-methanesulfonyl-2-morpholinobenzyloxy)phenyl]-4H-thieno[3,2-b]pyrrole-2-carboxylic acid dihydrochloride], the IC50 in test [1] (setting [4]) and in test [2] was below 100 nM each time.

Take `Cn1c(-c2ccc(OCc3cc(N4CCCC4=O)ccc3N3CCOCC3)cc2)c(C2CCCCC2)c2sc(C(=O)O)cc21` [Example 15, 6-cyclohexyl-4-methyl-5-{4-[2-morpholino-5-(2-oxopyrrolidin-1-yl)benzyloxy]phenyl}-4H-thieno[3,2-b]pyrrole-2-carboxylic acid hydrochloride]: the IC50 in test [1] (setting [3]) and in test [2] was below 100 nM each time.

Take `COc1ccc(-c2c(C3CCCCC3)c3sc(C(=O)O)cc3n2CC(=O)N2CCOCC2)cc1` [Example 25, 6-cyclohexyl-5-(4-methoxyphenyl)-4-morpholinocarbonylmethyl-4H-thieno[3,2-b]pyrrole-2-carboxylic acid]: the IC50 is 100 to 1000 nM in test [1] (setting [3]) and below 100 nM in test [2].

For `Cn1c(-c2ccc(OCc3ccc(N4CCCC4=O)cc3N3CCOCC3)cc2)c(C2CCCCC2)c2sc(C(=O)O)cc21` [Example 34, 6-cyclohexyl-4-methyl-5-{4-[2-morpholino-4-(2-oxopyrrolidin-1-yl)benzyloxy]phenyl}-4H-thieno[3,2-b]pyrrole-2-carboxylic acid hydrochloride], the IC50 in test [1] (setting [3]) and in test [2] was below 100 nM throughout.

On to `Cn1c(-c2ccc(OCc3ccccc3)cc2)c(C2CCCCC2)c2sc(C(=O)O)cc21` [Example 12, 5-(4-benzyloxyphenyl)-6-cyclohexyl-4-methyl-4H-thieno[3,2-b]pyrrole-2-carboxylic acid], for which the IC50 in test [1] (setting [3]) and in test [2] was 100 to 1000 nM throughout.

Turning to `CN(C(=O)CN1CCOCC1)c1ccc(N2CCOCC2)c(COc2ccc(-c3c(C4CCCCC4)c4sc(C(=O)O)cc4n3C)cc2)c1` [Example 57, 6-cyclohexyl-4-methyl-5-(4-{5-[N-methyl-N-(2-morpholinoacetyl)amino]-2-morpholinobenzyloxy}phenyl)-4H-thieno[3,2-b]pyrrole-2-carboxylic acid dihydrochloride], the IC50 in test [1] (setting [4]) and in test [2] was below 100 nM each time.

On to `CC(C(=O)N(C)c1ccc(N2CCOCC2)cc1)n1c(-c2ccc(OCc3ccccc3)cc2)c(C2CCCCC2)c2sc(C(=O)O)cc21` (centres unmarked) [Example 60, 5-(4-benzyloxyphenyl)-6-cyclohexyl-4-{1-[N-methyl-N-(4-morpholinophenyl)carbamoyl]ethyl}-4H-thieno[3,2-b]pyrrole-2-carboxylic acid hydrochloride], for which the IC50 in test [2] was 100 to 1000 nM.
